Marks after values point to notes of the source that are not given here. Bridge positions count the residues as written; N and C are the ends. Square brackets hold non-standard residues; d marks the D form. Peptide text beside a SMILES is read from it. * marks the point of attachment. Palmitoyl = CCCCCCCCCCCCCCCC(=O)*; Dab = NCC[C@H](N)C(=O)O; Dap = NC[C@H](N)C(=O)O; AEEA = NCCOCCOCC(=O)O
Columns and labels:
[1] = Plasma concentration of respective natriuretic peptide by ELISA after SC bolus in CD-1 mice (pharmacokinetics, Table 3); details: male, CD-1, mouse, in vivo, sc, 1 mg/kg
In short: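 Peptides given SC in sterile water; retro-orbital blood at 2 and 6 h post-dose (two bleeds per mouse), K2EDTA plasma. Plasma cGMP by commercial immunoassay kit; ANP, BNP or CNP plasma levels by peptide-specific ELISA.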

Sprague Dawley rats [2] = details: rat, in vivo, sc
Description: (§1) Animal care and treatment: Male Sprague Dawley rats aged 8 to 10 weeks (Charles River, Hollister, CA) were housed in groups of two (n=3/group) in disposable polypropylene cages with rodent cob bedding at the PharmaIN animal facility. Animals had ad libitum access to food (LabDiet Pico Rodent #5053; Animal Specialties, Woodburn, OR) and water. Temperature (68-74° F.) and humidity (30-60%) were maintained within a controlled range, and a 12-hour light/dark cycle was used. […] Animals were monitored closely during the first 4 hours following injection, then hourly throughout the rest of the day for any signs of swelling or discoloration (dilatory side effect), lethargy (side effect), ataxia (ataxia is used as a marker of toxicity). Rats were allowed a 1-week wash-out period between bolus doses. Following final observations, animals were humanely euthanized through CO2 asphyxiation.

[3] = test system: inflammatory cytokines (MCP1, IL-6, TNFα) in BALF; assay: LPS ALI model: inflammatory cytokines in BALF by ELISA (Table 4); type: in vivo, mice; details: LPS 0.05 mg/kg IT; SEQ 0.3 mg/kg SC, Sivelestat 150 mg/kg IP; 24 hours
Description: Animal care and treatment: Male C57BL/6J mice (6 weeks-old) were purchased from Kyudo (Saga, Japan) and maintained under a 12-hour light/12-hour dark cycle with free access to water and standard mouse diet (MF diet, Oriental Yeast Co., Ltd. Tokyo, Japan). Drug administration: Mice were administered LPS (0.05 mg/kg IT; Sigma-Aldrich) followed by treatment with various test articles, including Sivelestat (150 mg/kg; Nipro, Osaka, Japan), an inhibitor of human neutrophil elastase, injected IP as a positive control, and cationic alkyl modified CNPs (SEQ ID NO: 31, 29, and 30; 0.3 mg/kg (0.1 μmol/kg) SC). The test articles were administered immediately after LPS injection. Additionally, a normal control (NC) group without LPS administration and a Control group receiving only LPS without any test article were included. After 24 hours, the mice were euthanized under isoflurane anesthesia and BALF was harvested. Biochemical analysis: ALI and ARDS are often characterized by increased levels of inflammatory cytokines, including Macrophage Chemoattractant Protein-1 (MCP1), Interleukin-6 (IL-6), and […] (TNFα), in BALF. Decreases in their concentration can indicate the resolution of ALI/ARDS. Concentration of each cytokine (MCP1, IL-6, and TNFα) was measured using an ELISA kit (R&D SYSTEMS, Minneapolis M N). […] Statistical analysis was based on Dunnett's test performed by using GraphPad. (n=5, 8, 8, 8, and 8; NC, Control, PC, SEQ ID NO: 31, SEQ ID NO: 29). *** P<0.001, ** P<0.01, * P<0.05 vs each corresponding Control group.

Sprague Dawley rats [4] = assay: Dose-range finding of cationic alkyl modified CNP, subcutaneous bolus in rats (Table 2)
Description: as §1

C57BL/6J mice = assay: Bleomycin mouse model of idiopathic pulmonary fibrosis, alveolar area (FIG. 8); type: in vivo; details: Day 21
Description: FIGS. 8A-8B. […] Additionally, a normal control group (NC; n=3) without Bleo, and a Bleo Control group (n=7) without test article treatment were also included in this study. On Day 21 post Bleo administration, the mice were sacrificed under isoflurane anesthesia, and their lung tissues were harvested. FIG. 8B) A part of the lung tissue was fixed in 4% PFA, and Azan staining was performed, and alveolar areas (inversely proportional to the degree of fibrosis) were measured by Image J in a blinded setting. Error bars indicate standard error of the mean. Statistical analysis was performed by Student t-test on GraphPad Prism (n=3, 7, 7, 7, and 7); NC, Bleo Control, SEQ ID NO: 31, Pir, and Combo (SEQ ID NO: 31 & pirfenidone) *** P<0.001, ns=not significant vs NC.
Animal care and treatment: Male C57BL/6J mice (6 weeks-old) were purchased from Kyudo (Saga, Japan) and maintained under a 12-hour light/12-hour dark cycle with free access to water and standard mouse diet (MF diet, Oriental Yeast Co., Ltd. Tokyo, Japan). To induce lung fibrosis, mice received IT administration of bleomycin (Bleo; 1.0 mg/kg; Nippon Kayaku Tokyo, Japan). […] Alveolar area, which is inversely proportional to fibrotic area, were measured by Image J in a blinded setting (NIH, Bethesda, MD, USA).

CCCCCCCCCCCCCCCC(=O)NCCOCCOCC(=O)NCCOCCOCC(=O)NCCOCCOCC(=O)N[C@@H](CCN)C(=O)N[C@@H](CCN)C(=O)NCC(=O)N[C@@H](CC(C)C)C(=O)N[C@@H](CO)C(=O)N[C@@H](CCCCN)C(=O)NCC(=O)N[C@H]1CSSC[C@@H](C(=O)O)NC(=O)CNC(=O)[C@H](CC(C)C)NC(=O)CNC(=O)[C@H](CO)NC(=O)[C@H](CCC(N)=O)NC(=O)[C@H](CO)NC(=O)CNC(=O)[C@H]([C@@H](C)CC)NC(=O)[C@H](CCCNC(=N)N)NC(=O)[C@H](CC(=O)O)NC(=O)[C@H](CC(C)C)NC(=O)[C@H](CCCCN)NC(=O)[C@H](CC(C)C)NC(=O)CNC(=O)[C@H](Cc2ccccc2)NC1=O [SEQ ID NO: 29] ({Palmitoyl-AEEA-AEEA-AEEA}-[Dab][Dab]GLSKGCFGLKLDRIGSQSGLGC-OH; disulfide 8-24; C-terminus assumed)
level at 2 h [1]: 18 ng/mL | level at 6 h [1]: 8.93 ng/mL | Swelling and/or Discoloration in n = 3 (Sprague Dawley rats [2]): (3.1) μmol/kg | IL-6 in BALF [3]: 76 % Of Control | MCP1 in BALF [3]: 69 % Of Control | TNFα in BALF [3]: 39** % Of Control | Ataxia** in n = 3 (Sprague Dawley rats [4]; up to 10 mg/kg): >10 mg/kg | Lethargy* in n = 3 (Sprague Dawley rats [4]; up to 10 mg/kg): ≥9.5 mg/kg | Ataxia** in n = 3 (Sprague Dawley rats [4]; value in parentheses): (3.3) μmol/kg | Lethargy* in n = 3 (Sprague Dawley rats [4]; value in parentheses): (3.1) μmol/kg

CCCCCCCCCCCCCCCC(=O)NCCOCCOCC(=O)NCCOCCOCC(=O)NCCOCCOCC(=O)N[C@@H](CN)C(=O)N[C@@H](CN)C(=O)NCC(=O)N[C@@H](CC(C)C)C(=O)N[C@@H](CO)C(=O)N[C@@H](CCCCN)C(=O)NCC(=O)N[C@H]1CSSC[C@@H](C(=O)O)NC(=O)CNC(=O)[C@H](CC(C)C)NC(=O)CNC(=O)[C@H](CO)NC(=O)[C@H](CCC(N)=O)NC(=O)[C@H](CO)NC(=O)CNC(=O)[C@H]([C@@H](C)CC)NC(=O)[C@H](CCCNC(=N)N)NC(=O)[C@H](CC(=O)O)NC(=O)[C@H](CC(C)C)NC(=O)[C@H](CCCCN)NC(=O)[C@H](CC(C)C)NC(=O)CNC(=O)[C@H](Cc2ccccc2)NC1=O [SEQ ID NO: 31] ({Palmitoyl-AEEA-AEEA-AEEA}-[Dap][Dap]GLSKGCFGLKLDRIGSQSGLGC-OH; disulfide 8-24; C-terminus assumed)
level at 2 h [1]: 76.8 ng/mL | level at 6 h [1]: 14.8 ng/mL | Swelling and/or Discoloration in n = 3 (Sprague Dawley rats [2]): (3.3) μmol/kg | Alveolar area (inversely proportional to fibrosis) (C57BL/6J mice; alone, 0.3 mg/kg SC once a day on weekdays from day 7): significantly higher alveolar area | Alveolar area (inversely proportional to fibrosis) (C57BL/6J mice; in combination with pirfenidone 100 mg/kg orally): significantly higher alveolar area | IL-6 in BALF [3]: 56* % Of Control | MCP1 in BALF [3]: 50** % Of Control | TNFα in BALF [3]: 28** % Of Control | Ataxia** in n = 3 (Sprague Dawley rats [4]; up to 10 mg/kg): >10 mg/kg | Lethargy* in n = 3 (Sprague Dawley rats [4]; up to 10 mg/kg): >10 mg/kg | Ataxia** in n = 3 (Sprague Dawley rats [4]; value in parentheses): (3.3) μmol/kg | Lethargy* in n = 3 (Sprague Dawley rats [4]; value in parentheses): (3.3) μmol/kg
